Experimental data reported in patent US20030166721A1, “Choline derivative for the treatment of alzheimer's disease” (priority 2000, published 2003).

What was measured:
[1] = target: T1, Choline Specific Transport System (HUCT) (Rattus norvegicus, UniProt Q9JMD7); assay: EEG after ICV Hemicholinium-3 (choline uptake blocker) pretreatment; type: in vivo; settings: rats, i.p. at the active dose after Hch3 pretreatment
T1 construct: from tissue; host or cells: brain of living Wistar rats (in vivo, ICV microinfusion, EEG read-out)
T1 sequence (Q9JMD7 1-580): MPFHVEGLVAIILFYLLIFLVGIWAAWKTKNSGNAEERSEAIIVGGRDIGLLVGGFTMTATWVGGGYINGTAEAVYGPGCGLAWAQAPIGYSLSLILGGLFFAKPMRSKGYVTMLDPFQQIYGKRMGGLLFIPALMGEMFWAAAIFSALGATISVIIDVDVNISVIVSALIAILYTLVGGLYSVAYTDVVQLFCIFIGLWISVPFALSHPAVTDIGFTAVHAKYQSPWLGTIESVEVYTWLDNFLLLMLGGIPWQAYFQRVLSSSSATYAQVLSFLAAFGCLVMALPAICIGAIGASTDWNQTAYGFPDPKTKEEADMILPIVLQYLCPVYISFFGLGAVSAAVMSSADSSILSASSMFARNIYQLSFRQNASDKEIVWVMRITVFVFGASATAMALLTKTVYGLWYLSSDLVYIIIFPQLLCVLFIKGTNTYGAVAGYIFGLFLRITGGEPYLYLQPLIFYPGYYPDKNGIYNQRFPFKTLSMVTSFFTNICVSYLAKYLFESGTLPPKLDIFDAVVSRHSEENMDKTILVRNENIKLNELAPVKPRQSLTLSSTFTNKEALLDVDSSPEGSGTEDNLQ
Description: FIG. 4B—Effect on EEG spectrum power after treatment with PC-1 (5 mg i.p.) administered 15 min after microinfusion of Hch3 (0.1 ng/0.5 μl) in the III ventricule. As in FIG. 4a, time (min) is reported in abscissa, the EEG spectrum power expressed as μV^2/s is reported in ordinate. Graphics report the EEG spectrum total power (0.25-16 Hz).

NBM lesioned rats = assay: EEG in rats with unilateral AMPA lesion of Meynert nucleus basalis (NBM); type: in vivo, rat
Description: Male Wistar rats (200-250 g), anaesthetised with chloral hydrate (400 mg/kg), were subjected to unilateral lesion of Meynert nucleus basalis (NBM), by intracerebral infusion of α-amino-3-hydroxy-4-isoxazolepropionic acid (AMPA) (1.3 μg/0.5 μl). The animals were divided into four groups, the first two were subjected to NBM lesion; the third was a sham-operated group, and the last was the control group. Two weeks after the lesion, the animals were implanted under general anesthesia, with cortical electrodes (n=4) onto the fronto-parietal region, so as to make it possible, 24 hours later, to record the EEG activity of freely moving animals. EEG activity was continuously monitored and recorded for 60 min by a computerised EEG Berg-Fourier apparatus. Spontaneous activity of the EEG spectrum total power (0.25-16 Hz), as well as that of preselected frequency bands, was recorded for times of 5 min and quantitized (μV).
In order to quantitize AMPA-induced neuronal loss in NBM, coronal serial sections of rat brain were prepared, then stained with toluidine blue to verify the injection site and treated, by immunohistochemical procedure, with 192LR-NGF to quantitize the neuronal loss. Said sections were analysed by a computerized system for image analysis (Axiophoy Zeiss and Vidas Kintron). Statistical analysis of the data from the morphological study was performed by ANOVA followed, if significant, by the post-hoc Tuckey-Kramer test.
In lesioned animals (n=16), with about 45% neuronal loss at the NBM level (FIG. 5), EEG synchronization accompanied with significant increase (P<0.01) in total power (0.25-16 Hz), (170.4±25.8) of EEG spectrum (μV), as well as in higher frequency bands (6-9, 9-12 and 12-16 Hz) (FIG. 7; Tab. 4), was observed. EEG activity of half the NBM lesioned animals was further recorded. After recording the baseline EEG activity, this group of animals was intraperitoneally administered with a PC-1 single dose.

Wistar rats = assay: EEG spectral qualitative and quantitative analysis in freely moving rats after i.p. administration; type: in vivo, rat
Description: Young male Wistar rats (200-260) were used in the experiments, housed in a standard temperature and humidity conditions, with food and water ad libitum. […] After surgery all animals were housed 48 h to allow a complete recovery. 48 Hours after electrode implantation, the animals, placed in a transparent box and freely moving, were connected with an electroencephalograph and the electrocortical activity was continuously monitored and recorded. […] Qualitative and quantitative analysis on the electrocortical activity EEG recording was subsequently carried out. The animals were divided in 4 groups, the first group acted as the control, the second received cytidine-5′-diphosphocholine (CDP-choline), the third and fourth received PC-1 and PC-2, respectively (pivaloylcholine iodide and pivaloyleholine trimethylacetate, respectively). The control group received an equal volume of saline solution by the same procedure. […] Statistical analysis was performed by analysis of variance (ANOVA) for multiple measurements followed, if significant, by the post-hoc Tuckey-Kramer test. A comparison between groups was performed to exclude any individual variability.

[2] = NBM unilaterally lesioned rats + PC-1 (5 mg i.p.), hemisphere ipsilateral to lesion
[3] = after i.p. administration, % ± SEM
[4] = i.p. (vol. 0.5 ml), mean ± SEM, 7 tests

CC(C)(C)C(=O)OCC[N+](C)(C)C.[I-] [PC-1, pivaloylcholine iodide]
Alert response and EEG desynchronization after Hch3 pretreatment [1]: induced neither alert response not EEG desynchronization | Effect on EEG spectrum after NBM excitotoxic lesion (FIG. 7) (NBM lesioned rats; NBM lesioned rats (AMPA), 5 mg i.p.): restores both the normal composition of EEG spectrum and the distribution of its frequencies | Duration of the decrease in ECoG spectrum total power (NBM lesioned rats; NBM lesioned rats, 5 mg i.p.): about 15 min | Time to onset of alert response, EEG desynchronization and decrease in ECoG total power (NBM lesioned rats; NBM lesioned rats, 5 mg i.p.): ≤ 15 min | Change in 6 rhythm (0.25-3 Hz) (NBM lesioned rats; NBM lesioned rats, 5 mg i.p., P<0.05): significant decrease | ECoG spectrum total power, second value of printed pair (NBM lesioned rats; NBM lesioned rats, 5 mg i.p., presumably after PC-1): 96±20.3 | ECoG spectrum total power, first value of printed pair (NBM lesioned rats; NBM lesioned rats, 5 mg i.p., presumably before PC-1): 150±19.3 | EEG spectrum band 0.25-3 Hz (NBM lesioned rats; [2]): 3.4% | EEG spectrum band 3-6 Hz (NBM lesioned rats; [2]): 33.3% | EEG spectrum band 6-9 Hz (NBM lesioned rats; [2]): 23.5% | EEG spectrum band 9-12 Hz (NBM lesioned rats; [2]): 13.6% | EEG spectrum band 12-16 Hz (NBM lesioned rats; [2]): 14.6% | Change of slow EEG spectrum components (FIG. 3) (Wistar rats): decrease in slow components (delta and theta) of the spectrum | Duration of the decrease in EEG total power (Wistar rats; 5 mg i.p.): 15 min | Time to onset of EEG desynchronization and significant decrease in EEG total power (Wistar rats; 5 mg i.p.): 15 min | EEG frequency band 0.25-3 Hz (Wistar rats; [3]): 4.3 ± 0.7(*) % | EEG frequency band 3-6 Hz (Wistar rats; [3]): 18 ± 0.6(*) % | EEG frequency band 6-9 Hz (Wistar rats; [3]): 32.5 ± 1.3% | EEG frequency band 9-12 Hz (Wistar rats; [3]): 19.3 ± 0.9% | EEG frequency band 12-16 Hz (Wistar rats; [3]): 13 ± 1.0% | Effect of atropine given 15 min before the compound (Wistar rats; atropine pretreatment): antagonize the effects | EEG total power (fronto-parietal cortex), Baseline (Wistar rats; before i.p. injection (vol. 0.5 ml), mean ± SEM, 7 tests): 120 ± 2.9 | EEG total power (fronto-parietal cortex), 15′ (Wistar rats; [4]): 82 ± 3.6(*) | EEG total power (fronto-parietal cortex), 30′ (Wistar rats; [4]): 128 ± 3.2 | EEG total power (fronto-parietal cortex), 45′ (Wistar rats; [4]): 110 ± 2.7 | EEG total power (fronto-parietal cortex), 60′ (Wistar rats; [4]): 120 ± 4.3 | EEG total power (fronto-parietal cortex), 75′ (Wistar rats; [4]): 125 ± 3.5 | EEG total power (fronto-parietal cortex), 90′ (Wistar rats; [4]): 127 ± 4
